Test results reported in patent US20180282323A1, “Mesoionic imidazole derivatives as insecticides” (BAYER CROPSCIENCE AKTIENGESELLSCHAFT, priority 2015, published 2018).
Where two headings read alike, the source gives them in different places.

How the values were obtained:
Myzus persicae [1] = assay: Myzus persicae oral test; format: in vivo; conditions: application rate 20 ppm, oral uptake through parafilm, after 5 days; for pest or weed control at 20 ppm: Myzus persicae, 120 h, read-out: efficacy
Experimental: Myzus persicae—Oral Test Solvent: 100 parts by weight of acetone
To produce an appropriate active ingredient formulation, 1 part by weight of active ingredient is dissolved with the stated parts by weight of solvent and made up with water until the desired concentration is attained.
50 μl of the active ingredient formulation are transferred into microtitre plates and made up to a final volume of 200 μl with 150 μl of IPL41 insect medium (33%+15% sugar). Subsequently, the plates are sealed with parafilm, which a mixed population of green peach aphids (Myzus persicae) within a second microtitre plate is able to puncture and imbibe the solution through it.
After 5 days, the efficacy in % is determined. 100% means that all the aphids have been killed; 0% means that no aphids have been killed.

Myzus persicae [2] = assay: Myzus persicae spray test (Chinese cabbage leaf discs); format: in vivo; conditions: application rate 500 g/ha, after 6 days
Experimental: Myzus persicae—Spray Test Solvent: 78 parts by weight of acetone • • 1.5 parts by weight of dimethylformamide Emulsifier: alkylaryl polyglycol ether
To produce a suitable active ingredient formulation, 1 part by weight of active ingredient is dissolved with the stated parts by weight of solvent and made up with water containing an emulsifier concentration of 1000 ppm until the desired concentration is attained. To produce further test concentrations, the formulation is diluted with emulsifier-containing water.
Discs of Chinese cabbage leaves (Brassica pekinensis) infested by all stages of the green peach aphid (Myzus persicae) are sprayed with an active ingredient formulation of the desired concentration.
After 6 days, the efficacy in % is determined. 100% means that all the aphids have been killed; 0% means that no aphids have been killed.

[3] = log P by HPLC on reversed-phase column (EEC directive 79/831 Annex V.A8); format: physicochemical; conditions: for log p a): HPLC on reversed-phase column; for log p: HPLC on reversed-phase column (footnote a)
In short: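 Determined per EEC directive 79/831 Annex V.A8 by HPLC on a reversed-phase C18 column at 43° C.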

Row | Compound | efficacy (Myzus persicae [1]) [%] | efficacy (Myzus persicae [2]) [%] | log p a) [3] | log p [3] | chromatographic logP [3] | chromatographic logP ([3]; pH 2.7) | pest or weed control at 20 ppm (Myzus persicae [1]) [%]
1 | O=C(Nc1ncccc1Cl)c1c([O-])n(Cc2ccc(Cl)nc2)c2cccc[n+]12 [Example I-1-315] | 100 | 100 | 1.46 |  |  |  | 
2 | Cc1cccc2n(Cc3cnc(Cl)s3)c([O-])c(C(=O)CCl)[n+]12 [Example I-1-080] |  | 100 |  | 1.81 |  |  | 
3 | O=C(Cn1nccn1)c1c([O-])n(Cc2cnc(Cl)s2)c2cccc[n+]12 [Example I-1-068] | 100 | 100 |  | 1.41 |  |  | 
4 | CC(=O)N(C)CC(=O)c1c([O-])n(Cc2cnc(Cl)s2)c2cccc[n+]12 [Example I-1-076] | 100 | 100 |  | 1.18 |  |  | 
5 | Cc1ccc[n+]2c(C(=O)COCC(F)(F)F)c([O-])n(Cc3cnc(Cl)s3)c12 [Example I-1-297] | 100 | 90 | 2.34 |  |  |  | 
6 | Cc1ccc[n+]2c(C(=O)CCl)c([O-])n(Cc3cnc(Cl)s3)c12 [Example I-1-081] | 100 | 100 |  | 1.98 |  |  | 
7 | O=C(Nc1ccccc1C(F)(F)F)c1c([O-])n(Cc2cnc(Cl)s2)c2cccc[n+]12 [Example I-1-311] | 100 | 100 | 3.22 |  |  |  | 
8 | COC(=O)c1c([O-])n(Cc2cnc(Cl)s2)c2cccc[n+]12 [Example I-1-085, 1-[(2-Chloro-1,3-thiazol-5-yl)methyl]-3-(methoxycarbonyl)-1H-imidazo[1,2-a]pyridin-4-ium-2-olate] |  | 90 |  |  | 1.23 | 1.23 | 
9 | CCCOCC(=O)c1c([O-])n(Cc2cncnc2)c2cccc[n+]12 [Example I-1-061] | 100 | 100 |  | 1.08 |  |  | 
10 | Cc1ccnc(Cl)c1NC(=O)c1c([O-])n(Cc2cnc(Cl)s2)c2cccc[n+]12 [Example I-1-309] | 100 | 100 | 2.03 |  |  |  | 
11 | N#Cc1cccc(Cl)c1NC(=O)c1c([O-])n(Cc2cnc(Cl)s2)c2cccc[n+]12 [Example I-1-319] | 100 | 90 | 2.43 |  |  |  | 
12 | O=C(Nc1ncccc1Cl)c1c([O-])n(Cc2cnc(Cl)s2)c2cccc[n+]12 [Example I-1-301] | 100 | 100 | 1.63 |  |  |  | 
13 | COCC(=O)c1c([O-])n(C(C)c2ccc(Cl)nc2)c2cccc[n+]12 (stereo not shown) [Example I-1-178] | 100 | 90 |  | 1.35 |  |  | 
14 | CCC(=O)N(CC)CC(=O)c1c([O-])n(Cc2ccc(Cl)nc2)c2cccc[n+]12 [Example I-1-070] | 100 | 100 |  | 1.64 |  |  | 
15 | O=C(Cn1cc(Cl)cn1)c1c([O-])n(Cc2cnc(Cl)s2)c2cccc[n+]12 [Example I-1-010] | 100 | 90 |  | 2.09 |  |  | 
16 | CCC(CC)OCC(=O)c1c([O-])n(Cc2cnc(Cl)s2)c2c(C)ccc[n+]12 [Example I-1-293] | 100 | 100 | 2.76 |  |  |  | 
17 | O=C(Nc1cccnc1Cl)c1c([O-])n(Cc2cnc(Cl)s2)c2cccc[n+]12 [Example I-1-308] | 100 | 90 | 2.4 |  |  |  | 
18 | CCCNC(=O)c1c([O-])n(Cc2cnc(Cl)cn2)c2cccc[n+]12 [Example I-1-279] | 100 | 90 | 1.81 |  |  |  | 
19 | Cc1ccc[n+]2c(C(=O)COC(C)(C)C)c([O-])n(Cc3cnc(Cl)s3)c12 [Example I-1-296] | 100 | 90 | 2.12 |  |  |  | 
20 | Cc1ccc[n+]2c(C(=O)NC(C)c3ccc(Cl)cc3)c([O-])n(Cc3cnc(Cl)s3)c12 (stereo not shown) [Example I-1-210] | 100 | 100 | 3.46 |  |  |  | 
21 | N#Cc1cccnc1NC(=O)c1c([O-])n(Cc2cnc(Cl)s2)c2cccc[n+]12 [Example I-1-310] | 100 | 90 | 1.75 |  |  |  | 
22 | CCOCC(=O)c1c([O-])n(Cc2cnc(Cl)s2)c2ccc(F)c[n+]12 [Example I-1-112] | 100 | 90 |  | 1.58 |  |  | 
23 | CSCC(=O)c1c([O-])n(Cc2ccc(Cl)nc2)c2cccc[n+]12 [Example I-1-005] | 100 | 90 |  | 1.62 |  |  | 
24 | CCOCC(=O)c1c([O-])n(Cc2cncnc2)c2cccc[n+]12 [Example I-1-072] | 100 | 100 |  | 0.59 |  |  | 

Row | Compound | efficacy (Myzus persicae [1]) [%] | efficacy (Myzus persicae [2]) [%] | log p a) [3] | log p [3] | chromatographic logP [3] | chromatographic logP ([3]; pH 2.7) | pest or weed control at 20 ppm (Myzus persicae [1]) [%]
25 | CC(C)OCC(=O)c1c([O-])n(Cc2cnc(Cl)s2)c2cccc[n+]12 [Example I-1-026, 1-[(2-chloro-1,3-thiazol-5-yl)methyl]-3-(isopropoxyacetyl)-1H-imidazo[1,2-a]pyridin-4-ium-2-olate] |  | 100 |  |  | 1.73 | 1.8 | 100
26 | CC(=O)c1c([O-])n(Cc2cnc(Cl)s2)c2cccc[n+]12 [Example I-1-043, 3-Acetyl-1-[(2-chloro-1,3-thiazol-5-yl)methyl]-1H-imidazo[1,2-a]pyridin-4-ium-2-olate] |  | 100 |  |  | 1.29 | 1.29 | 100
27 | Cc1cccc(Cl)c1NC(=O)c1c([O-])n(Cc2cnc(Cl)s2)c2cccc[n+]12 [Example I-1-304] | 100 | 100 | 2.8 |  |  |  | 
28 | COC(=O)c1c([O-])n(Cc2cncnc2)c2cccc[n+]12 [Example I-1-107] | 100 | 90 |  | 0.42 |  |  | 
29 | CC(=O)Nc1ccn(CC(=O)c2c([O-])n(Cc3cnc(Cl)s3)c3cccc[n+]23)n1 [Example I-1-056] | 90 | 90 |  | 1.21 |  |  | 
30 | Cc1cnc(Cn2c([O-])c(C(=O)Nc3c(F)cccc3F)[n+]3ccccc23)cn1 [Example I-1-269] | 100 |  | 1.75 |  |  |  | 
31 | CC(c1ccc(Cl)nc1)n1c([O-])c(C(=O)Nc2ccccc2)[n+]2ccccc12 (stereo not shown) [Example I-1-229] | 100 |  | 2.8 |  |  |  | 
32 | O=C(CSc1ccccc1)c1c([O-])n(Cc2cnc(Cl)s2)c2cccc[n+]12 [Example I-1-025] | 100 |  |  | 2.67 |  |  | 
33 | COc1ccc(NC(=O)c2c([O-])n(Cc3cnc(Cl)s3)c3c(C)ccc[n+]23)cc1 [Example I-1-208] | 100 |  | 2.91 |  |  |  | 
34 | O=C(NC1CCCC1)c1c([O-])n(Cc2cnc(Cl)s2)c2cccc[n+]12 [Example I-1-138] | 100 |  |  | 2.35 |  |  | 
35 | N#Cc1cnn(CC(=O)c2c([O-])n(Cc3cncnc3)c3cccc[n+]23)c1 [Example I-1-065] | 100 |  |  | 0.73 |  |  | 
36 | CCN(CC(=O)c1c([O-])n(Cc2ccc(Cl)nc2)c2cccc[n+]12)C(C)=O [Example I-1-071] | 90 |  |  | 1.4 |  |  | 
37 | C#Cc1cccnc1NC(=O)c1c([O-])n(Cc2cnc(Cl)s2)c2cccc[n+]12 [Example I-1-303] |  | 90 | 1.3 |  |  |  | 
38 | O=C(CCl)c1c([O-])n(Cc2cnc(Cl)c(Cl)c2)c2cccc[n+]12 [Example I-1-168] | 100 |  |  | 2.11 |  |  | 
39 | N#Cc1cccc(F)c1NC(=O)c1c([O-])n(Cc2cnc(Cl)s2)c2cccc[n+]12 [Example I-1-307] |  | 90 | 2.2 |  |  |  | 
40 | O=C(COc1cccnc1)c1c([O-])n(Cc2ccc(Cl)nc2)c2cccc[n+]12 [Example I-1-006] | 100 |  |  | 0.93 |  |  | 
41 | CCOCC(=O)c1c([O-])n(C(C)c2ccc(Cl)nc2)c2cccc[n+]12 (stereo not shown) [Example I-1-186] | 100 |  |  | 1.58 |  |  | 
42 | Cc1ccc[n+]2c(C(=O)Cn3cncn3)c([O-])n(Cc3cnc(Cl)s3)c12 [Example I-1-096] | 100 |  |  | 1.31 |  |  | 
43 | O=C(C[S+]([O-])Cc1ccccc1)c1c([O-])n(Cc2cnc(Cl)s2)c2cccc[n+]12 (stereo not shown) [Example I-1-035] | 100 |  |  | 1.72 |  |  | 
44 | CC(NC(=O)c1c([O-])n(Cc2cnc(Cl)s2)c2cccc[n+]12)c1ccc(Cl)cc1 (stereo not shown) [Example I-1-142] | 100 |  |  | 3.13 |  |  | 
45 | Cc1cccc2n(Cc3ccc(Cl)nc3)c([O-])c(C(=O)Cn3cccn3)[n+]12 [Example I-1-103] | 100 |  |  | 1.47 |  |  | 
46 | CCOCC(=O)c1c([O-])n(Cc2ccc(C(F)(F)F)nc2)c2cccc[n+]12 [Example I-1-188] | 100 |  |  | 1.72 |  |  | 
47 | Cc1ccc[n+]2c(C(=O)NC(C)(C)C)c([O-])n(Cc3cnc(Cl)s3)c12 [Example I-1-213] | 100 |  | 2.69 |  |  |  | 
